Earlier results in patent publication US20180214412A1, “IMMEDIATE RELEASE CANNABINOID FORMULATIONS” (CannTab Therapeutics Limited, priority 2017, published 2018).

Settings: after administration

**Q.** For `CCCCCc1cc(O)c2c(c1)OC(C)(C)[C@@H]1CCC(C)=C[C@@H]21` [Dronabinol, (−)-trans-Δ9-tetrahydrocannabinol], which “duration of appetite stimulant effect” value is on record?
**A.** Its value is no less than 24 h.
